Data on 8 compounds can be found in patent US7304090B2, “Inhibition of the cystic fibrosis transmembrane conductance regulator chloride channel” (The University of Bristol, priority 2000, dated 2007).

The test system of assay [1] is Type I Madin-Darby canine kidney (MDCK) cells. Kind of assay: Cyst growth of MDCK cells in collagen gels with cAMP agonists. It is filed as cell-based. The conditions noted are these: for cyst volume: day 21 vs day 12; for size of cysts (phase-contrast): days 12 to 21. As to the method: (§1) For cyst growth and cell proliferation experiments, we used Type I Madin-Darby canine kidney (MDCK) cells. We chose Type I MDCK cells because they form cysts when grown in collagen gels in the presence of cAMP agonists (26) and because they express the CFTR Cl^− channel (27). MDCK cells were cultured in MDCK media (a 1:1 mixture of Dulbecco's Modified Eagle Medium (DMEM) and Ham's F-12 nutrient medium supplemented with 100 U ml^−1 penicillin, and 100 μg ml^−1 streptomycin and either 10% fetal bovine serum (FBS; cyst growth) or 5% FBS and 1% insulin-transferrin-selenium-X (ITS-X) supplement (cell proliferation); all from Life Technologies Ltd, Paisley, UK) at 37° C. in a humidified atmosphere of 5% CO2.
To grow cysts, MDCK cells were cultured in collagen gels using a modification of the method of Grantham et al. (26). Cells were trypsinized with 0.25% (wt/vol) trypsin for 30 minutes at 37° C., diluted with MDCK media containing 10% FBS to form a suspension of between 1-3×10^4 cells ml^−1, and aliquoted into individual wells of a 24-well plate (0.1 ml per well). Each well contained 0.4 ml of ice-cold Vitrogen (3.0 mg ml^−1 collagen; Cohesion Technologies Inc., Palo Alto, USA) supplemented with 10% (vol/vol) 10× minimum essential medium, 10 mM N-[2-hydroxyethyl]piperazine-N′-[2-ethanesulphonic acid] (Hepes), 27 mM NaHCO3, 100 U ml^−1 penicillin, and 100 μg ml^−1 streptomycin, and adjusted to pH 7.4 with NaOH. The 24-well plate was gently agitated to distribute cells throughout the Vitrogen and incubated in a water bath at 37° C. for 90 minutes to promote gelation of the Vitrogen.
After gelation, 1.5 ml MDCK media containing 10% FBS was added to each well of the 24-well plate. To promote cyst growth, we added cAMP agonists (forskolin (10 μM), 3-isobutyl-1-methylxanthine (IBMX; 100 μM), and 8-(4-chlorophenylthio) adenosine 3′:5′-cyclic monophosphate (CPT-cAMP; 500 μM)) to the MDCK media. Plates were maintained at 37° C. in a humidified atmosphere of 5% CO2 and the MDCK media containing cAMP agonists changed every three days.
Twelve days after seeding collagen gels with MDCK cells, cysts were readily detected at ×1000 magnification using an inverted microscope with phase contrast optics (Leica, model DMIL, Milton Keynes, UK). To test the effect of CFTR modulators on cyst growth, drugs were added to MDCK media in the continued presence of cAMP agonists. MDCK media containing cAMP agonists and CFTR modulators was changed every 3 days for a total period of 9 days. Photographs of individual cysts were taken before the addition of CFTR modulators and at three day intervals over the duration of the experiment. To identify individual cysts, each cyst was assigned a unique reference number using a grid placed below the 24-well plate.
The diameter of cysts was measured directly from photographs of cysts using images that had been magnified by identical amounts. By assuming that cysts are spherical in shape, we calculated cyst volume ( 4/3·π·r^3).

The next assay deals with T1, wild-type human CFTR (Homo sapiens, UniProt P13569).
T1 construct: expressed in transfected cells
Briefly: CFTR Cl− channels recorded in excised inside-out membrane patches from C127 cells (patch-clamp). It is filed as biochemical. As to the method: For electrophysiological experiments, we used mouse mammary epithelial cells (C127 cells) stably expressing wild-type human CFTR (12). C127 cells expressing wild-type CFTR were cultured as previously described (10). Cells were seeded onto glass coverslips and used within 48 h.
The established sign convention was used throughout; currents produced by positive charge moving from intra- to extracellular solutions (anions moving in the opposite direction) are shown as positive currents.
[…] […] All experiments were conducted at 37° C.
PKA was maintained in the intracellular solution for the duration of experiments. Unless otherwise stated, voltage was −50 mV.
In time course studies, each point is the average current for a 4 s period with data points collected continuously; no data were collected while solutions were changed. Average current (I) for a specific intervention was determined as the average of all the data points collected during the intervention. […] Mean data were fitted to a linear form of equation (1) using linear least-squares regression to yield Ki and n values.
To measure single-channel current amplitude (i), Gaussian distributions were fitted to current amplitude histograms. For open probability (Po) and kinetic analyses, lists of open and closed times were created using a half-amplitude crossing criterion for event detection. Transitions <1 ms in duration were excluded from the analyses. Po was calculated using the equation: Po=(T1+T2+ . . . +TN)/(NTtot), (2) where N is the number of channels; Ttot is the total time analysed, and T1 is the time that one or more channels are open, T2 is the time two or more channels are open and so on. Only membrane patches that contained a single active channel were used for single-channel kinetic analyses.
To investigate whether inhibition of CFTR by fluorescein derivatives was voltage dependent, we used voltage ramp protocols. Macroscopic current-voltage (I-V) relationships were obtained in the absence and presence of fluorescein derivatives by averaging currents generated by 15-30 ramps of voltage each of 2 s duration; holding voltage was −50 mV. Basal currents recorded in the absence of PKA and ATP were subtracted from those recorded in the absence and presence of fluorescein derivatives to determine the effect of these agents on CFTR Cl^− currents.

The subject of another assay is Type I MDCK cells. Kind of assay: Proliferation of MDCK cells (cell counting). It counts as cell-based, canine. As to the method: as §1
To test the effect of CFTR modulators on the proliferation of MDCK cells, we used Type I MDCK cells grown in media containing 5% FBS and 1% ITS-X supplement. On day −1, MDCK cells were seeded at 7.5×10^4 cells ml^−1 in 35 mm dishes containing MDCK media with 1% FBS and 1% ITS-X supplement. On day 0, the concentration of FBS was reduced further to 0.01% and CFTR modulators added to the MDCK media. MDCK media containing CFTR modulators was changed every 2 days for a total period of 6 days. To determine the number of cells per 35 mm dish, Type I MDCK cells were harvested using trypsin (0.25% wt/vol), centrifuged at 1200 rpm for 5 min and resuspended in 1 ml of MDCK media before counting using a haemocytometer.

T1 sequence (P13569 whole entry): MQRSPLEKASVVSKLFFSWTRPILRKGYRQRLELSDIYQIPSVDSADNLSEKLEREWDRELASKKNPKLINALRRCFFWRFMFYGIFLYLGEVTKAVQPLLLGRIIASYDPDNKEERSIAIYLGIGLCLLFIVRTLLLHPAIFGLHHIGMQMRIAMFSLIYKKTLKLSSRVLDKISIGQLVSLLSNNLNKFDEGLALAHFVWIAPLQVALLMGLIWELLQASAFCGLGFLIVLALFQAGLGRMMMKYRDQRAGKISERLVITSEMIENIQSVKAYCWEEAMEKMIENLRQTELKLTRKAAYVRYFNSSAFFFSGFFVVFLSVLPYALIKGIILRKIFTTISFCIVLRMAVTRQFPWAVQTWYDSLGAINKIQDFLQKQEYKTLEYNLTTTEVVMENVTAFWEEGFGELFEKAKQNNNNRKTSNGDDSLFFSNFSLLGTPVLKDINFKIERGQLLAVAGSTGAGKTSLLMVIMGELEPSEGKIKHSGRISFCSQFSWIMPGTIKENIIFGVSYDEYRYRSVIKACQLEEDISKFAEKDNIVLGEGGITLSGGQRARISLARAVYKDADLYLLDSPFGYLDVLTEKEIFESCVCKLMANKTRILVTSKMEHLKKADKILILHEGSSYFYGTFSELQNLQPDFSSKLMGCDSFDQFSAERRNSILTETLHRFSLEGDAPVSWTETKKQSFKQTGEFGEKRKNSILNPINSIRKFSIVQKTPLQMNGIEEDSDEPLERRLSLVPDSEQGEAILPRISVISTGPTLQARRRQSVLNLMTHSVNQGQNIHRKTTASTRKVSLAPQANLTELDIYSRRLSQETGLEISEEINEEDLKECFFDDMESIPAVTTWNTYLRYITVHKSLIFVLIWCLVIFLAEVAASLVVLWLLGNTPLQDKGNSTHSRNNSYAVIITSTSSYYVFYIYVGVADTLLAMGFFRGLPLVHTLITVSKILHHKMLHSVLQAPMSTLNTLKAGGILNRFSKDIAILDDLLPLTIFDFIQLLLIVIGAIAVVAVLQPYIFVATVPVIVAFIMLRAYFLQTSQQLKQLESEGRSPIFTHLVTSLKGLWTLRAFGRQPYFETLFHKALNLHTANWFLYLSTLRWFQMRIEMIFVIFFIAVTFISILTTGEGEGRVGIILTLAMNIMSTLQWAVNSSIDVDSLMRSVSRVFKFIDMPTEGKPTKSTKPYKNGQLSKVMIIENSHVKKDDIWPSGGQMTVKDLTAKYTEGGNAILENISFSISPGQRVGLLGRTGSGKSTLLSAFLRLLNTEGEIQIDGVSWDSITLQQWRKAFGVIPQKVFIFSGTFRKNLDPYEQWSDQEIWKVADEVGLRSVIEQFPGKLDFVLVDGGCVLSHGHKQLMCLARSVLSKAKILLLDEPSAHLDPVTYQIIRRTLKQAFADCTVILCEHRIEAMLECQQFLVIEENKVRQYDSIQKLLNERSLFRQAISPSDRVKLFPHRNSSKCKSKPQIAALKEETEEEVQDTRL

As for `O=[N+]([O-])c1ccc(C=Cc2ccc([N+](=O)[O-])cc2S(=O)(=O)O)c(S(=O)(=O)O)c1` [DIDS, 4,4′-dinitrostilbene-2,2′-disulphonic acid], the cyst volume result in assay [1] (200 μM, P>0.5) was “exception”. Besides, the “size of cysts (phase-contrast)” value in assay [1] (200 μM) is “without effect on cyst growth”. Further, the “effect on activity of CFTR” value at wild-type human CFTR (200 μM, added to the intracellular side) was “potently inhibited”. Moreover, the “cell growth (number of cells), day 0 to 6” value (“cell growth … to 6” below) in the assay with Type I MDCK cells (200 μM) is “exception”.
On to `O=C(O)c1cc([N+](=O)[O-])ccc1NCCCc1ccccc1` [NPPB, 5-nitro-2-(3-phenylpropylamino)-benzoic acid], for which, in assay [1], the “rank order of decrease of cyst volume” value was “glibenclamide (100 μM)≧ouabain (1 μM)≧NPPB (400 μM)≧genistein (100 μM)>bumetanide”. Further, in assay [1] (400 μM), the cyst volume entry is given as “decreased cyst volume” and the “size of cysts (phase-contrast)” value is on record as “visible decrease in the size of cysts”. For the same compound, in the assay on Type I MDCK cells, the “inhibition of cell growth in the presence of cAMP agonists” value (“inhibition of cell growth” below) was “unaffected by cAMP agonists” and the “rank order of prevention of cell growth” value is on record as “ouabain (1 μM)=phloxine B (40 μM)=genistein (100 μM)=NPPB (400 μM)>glibenclamide (100 μM)”. In the assay on Type I MDCK cells (400 μM), the “cell growth … to 6” value is on record as “prevented cell growth”.
For the compound `O=C1OC2(c3cc(I)c(O)c(I)c3Oc3c2cc(I)c(O)c3I)c2c(Cl)c(Cl)c(Cl)c(Cl)c21` [bengal rose B], on wild-type human CFTR, the “potency of CFTR inhibition compared with glibenclamide” value is given as “potency greater than or equal to that of glibenclamide” and the “reversibility of CFTR inhibition” value is reported as “irreversible”. The “single-channel activity (i and/or Po)” value at wild-type human CFTR (10 μM) is reported as “never able to resolve discrete channel openings”. At wild-type human CFTR (concentration-response, FIG. 3), the “rank order of potency for CFTR inhibition” value is given as “bengal rose B>phloxine B>eosin Y≧tetrachlorofluorescein>>fluorescein” and the “stimulation of CFTR channel activity” value is “stimulated channel activity”. Also, the “cell growth … to 6” value in the assay with Type I MDCK cells (5 μM) is listed as “inhibited the proliferation”.
As for `CCCCNc1cc(C(=O)O)cc(S(N)(=O)=O)c1Oc1ccccc1` [bumetanide], in assay [1], the “rank order of decrease of cyst volume” value is “glibenclamide (100 μM)≧ouabain (1 μM)≧NPPB (400 μM)≧genistein (100 μM)>bumetanide”. Besides, in assay [1] (100 μM), the cyst volume entry is “decreased cyst volume”. Also, the “cell growth … to 6” value in the assay on Type I MDCK cells (100 μM) is “exception”.
Take `O=C1OC2(c3ccc(O)cc3Oc3cc(O)ccc32)c2ccccc21` [fluorescein]: on wild-type human CFTR (concentration-response, FIG. 3), the “rank order of potency for CFTR inhibition” value is “bengal rose B>phloxine B>eosin Y≧tetrachlorofluorescein>>fluorescein”.
For `O=c1c(-c2ccc(O)cc2)coc2cc(O)cc(O)c12` [genistein], in assay [1], the “rank order of decrease of cyst volume” value is “glibenclamide (100 μM)≧ouabain (1 μM)≧NPPB (400 μM)≧genistein (100 μM)>bumetanide”. For the same compound, the cyst volume entry in assay [1] (100 μM) is reported as “decreased cyst volume”. In the assay with Type I MDCK cells, the “inhibition of cell growth” value is listed as “unaffected by cAMP agonists” and the “rank order of prevention of cell growth” value is “ouabain (1 μM)=phloxine B (40 μM)=genistein (100 μM)=NPPB (400 μM)>glibenclamide (100 μM)”. The “cell growth … to 6” value in the assay on Type I MDCK cells (100 μM) was “prevented cell growth”.
In the case of `COc1ccc(Cl)cc1C(=O)NCCc1ccc(S(=O)(=O)NC(=O)NC2CCCCC2)cc1` [glibenclamide], in assay [1], the “rank order of decrease of cyst volume” value is “glibenclamide (100 μM)≧ouabain (1 μM)≧NPPB (400 μM)≧genistein (100 μM)>bumetanide”. In assay [1] (100 μM), the cyst volume result is “decreased cyst volume” and the “size of cysts (phase-contrast)” value is “visible decrease in the size of cysts”. Moreover, the “effect on channel block by phloxine B (20 μM)” value on wild-type human CFTR (glibenclamide 50 μM) is reported as “potentiated channel block”. Besides, in the assay on Type I MDCK cells, the “inhibition of cell growth” value was “unaffected by cAMP agonists” and the “rank order of prevention of cell growth” value is reported as “ouabain (1 μM)=phloxine B (40 μM)=genistein (100 μM)=NPPB (400 μM)>glibenclamide (100 μM)”. In addition, in the assay on Type I MDCK cells (100 μM), the “cell growth … to 6” value was “prevented cell growth”.
Consider `O=C(O)c1c(Cl)c(Cl)c(Cl)c(Cl)c1-c1c2ccc(=O)cc-2oc2cc(O)ccc12` [tetrachlorofluorescein], for which, on wild-type human CFTR, the “potency of CFTR inhibition compared with glibenclamide” value was “less potently than glibenclamide” and the “reversibility of CFTR inhibition” value is “partially reversible”. Further, at wild-type human CFTR (100 μM), the “open probability (Po)” value is on record as “decreasing” and the “single-channel current amplitude (i)” value is listed as “decreasing”. Further, on wild-type human CFTR (100 μM, symmetrical 147 mM Cl−), the “channel block at positive voltages” value was “relieved” and the “effect on CFTR Cl− currents at negative voltages” value is “decreased CFTR Cl^− currents”. Further, the “n (slope factor, Hill coefficient) of CFTR inhibition” value at wild-type human CFTR (ATP 0.3 mM, PKA 75 nM, −50 mV) is on record as 0.7. The Ki at wild-type human CFTR (ATP 0.3 mM, PKA 75 nM, −50 mV, 37° C., drug in intracellular solution, read-out: Ki (drug concentration causing half-maximal inhibition of CFTR Cl− current, Hill plot)) amounted to 58 µM. In addition, the “rank order of potency for CFTR inhibition” value on wild-type human CFTR (concentration-response, FIG. 3) is “bengal rose B>phloxine B>eosin Y≧tetrachlorofluorescein>>fluorescein”. Further, the “voltage-dependence of CFTR inhibition” value at wild-type human CFTR (voltage ramp ±100 mV, symmetrical 147 mM Cl−, ATP 1 mM) is “voltage-dependent”. Besides, the “cell growth … to 6” value with Type I MDCK cells (200 μM) is listed as “inhibited the proliferation”.
